For 23 compounds, IC50 results are on record in US20090004185A1, “AMINO-SUBSTITUTED QUINAZOLINE DERIVATIVES AS INHIBITORS OF BETA-CATENIN/TCF-4 PATHWAY AND CANCER TREATMENT AGENTS” (WYETH, priority 2007, published 2009).

For assay [1], the system named is β-catenin/Tcf-4. Briefly: cells. To be noted: Homo sapiens, 24 hours of incubation with compound, ratio Firefly/Renilla luciferase. The assay is classed as cell-based. The essentials:
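SW480-derived lines with integrated reporters (Tcf-4-driven firefly luciferase; SV40 firefly as specificity control; SV40 Renilla for cell number/toxicity), treated 24 hours with titrated compounds, final 0.316% DMSO. Dual-luciferase read-out; firefly/Renilla ratio as % of control, duplicate plates, IC50 (nM) from curve fit.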

Assay [2] relates to SV40-Luc. Briefly: SV40-Luc control luciferase reporter assay, SV 5A8 cell line (SV40-Luc and SV40-R-Luc), control for non-specific inhibitors. The assay is classed as cell-based, human. The following applies: Homo sapiens, SV5A8, 24 h, SV 5A8 cells derived from SW480; 24 hours of incubation with compound; ratio Firefly/Renilla luciferase. The essentials: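 Read-out is the firefly-to-Renilla luminescence ratio, expressed as % of control and averaged over duplicate plates, from which IC50s were fitted. Renilla under SV40 normalises for cell number and toxicity. SW480-derived lines carried integrated Tcf-4- or SV40-driven firefly reporters; compound exposure lasted 24 h.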
(In general: A reporter such as luciferase makes a cellular process visible.)

[3] abbreviates: SW480, 24 h, Tcf 33.13 cells derived from SW480.
Setting [4] is: Tcf22C11, 24 h, Tcf 22C11 cells derived from SW480.

For `CN(C)c1nc(NCc2ccc(NC(=O)c3ccc(Cl)nc3)cc2)c2ccccc2n1` [Example 128, 6-chloro-N-[4-({[2-(dimethylamino)quinazolin-4-yl]amino}methyl)phenyl]nicotinamide], the figures for the IC50 in assay [1] (setting [3]), in assay [1] (setting [4]) and in assay [2] were 708 nM, 1130 nM and > 23100 nM, respectively.

With `Cc1ccc2c(NCc3ccc(NC(=O)C4CCN(Cc5ccccc5)CC4)cc3)nc(N(C)C)nc2c1` [Example 129, 1-benzyl-N-[4-({[2-(dimethylamino)-7-methylquinazolin-4-yl]amino}methyl)phenyl]piperidine-4-carboxamide], the IC50 (usually the point on the concentration scale where inhibition reaches its midpoint) is 754 nM in assay [1] (setting [3]), 738 nM in assay [1] (setting [4]) and > 9170 nM in assay [2].

Take `Cc1ccc2c(NCc3ccc(NC(=O)C4CCN(Cc5ccccc5)CC4)cc3)nc(N3CCC3)nc2c1` [Example 134, N-(4-{[(2-azetidin-1-yl-7-methylquinazolin-4-yl)amino]methyl}phenyl)-1-benzylpiperidine-4-carboxamide]: the figures for the IC50 in assay [1] (setting [3]), in assay [1] (setting [4]) and in assay [2] were 782 nM, 805 nM and > 9600 nM, respectively.

Consider `Cc1ccc2c(NCc3ccc(NC(=O)C4CCN(Cc5ccccc5)CC4)cc3)nc(N3CCC(N4CCCC4)CC3)nc2c1` [Example 135, 1-benzyl-N-[4-({[7-methyl-2-(4-pyrrolidin-1-ylpiperidin-1-yl)quinazolin-4-yl]amino}methyl)phenyl]piperidine-4-carboxamide], for which the IC50 in assay [1] (setting [3]) is 853 nM; in assay [1] (setting [4]), 965 nM; in assay [2], > 8090 nM.

On to `Cc1ccc2c(NCc3ccc(NC(=O)C4CCN(Cc5ccccc5)CC4)cc3)nc(N3CCN(c4ncccn4)CC3)nc2c1` [Example 136, 1-benzyl-N-[4-({[7-methyl-2-(4-pyrimidin-2-ylpiperazin-1-yl)quinazolin-4-yl]amino}methyl)phenyl]piperidine-4-carboxamide], for which the IC50 in assay [1] (setting [3]) was 365 nM; in assay [1] (setting [4]), 494 nM; in assay [2], > 15900 nM.

Take `Cc1ccc2c(NCc3ccc(NC(=O)C4CCN(Cc5ccccc5)CC4)cc3)nc(N3CCNC(CCO)C3)nc2c1` (stereo not drawn) [Example 138, 1-benzyl-N-{4-[({2-[3-(2-hydroxyethyl)piperazin-1-yl]-7-methylquinazolin-4-yl}amino)methyl]phenyl}piperidine-4-carboxamide]: the IC50 is 2120 nM in assay [1] (setting [3]), 2280 nM in assay [1] (setting [4]) and > 8420 nM in assay [2].

With `Cc1ccc2c(NCc3ccc(NC(=O)C4CCN(Cc5ccccc5)CC4)cc3)nc(N(C)CCO)nc2c1` [Example 139, 1-benzyl-N-{4-[({2-[(2-hydroxyethyl)(methyl)amino]-7-methylquinazolin-4-yl}amino)methyl]phenyl}piperidine-4-carboxamide], the IC50 was 1420 nM in assay [1] (setting [3]), 1460 nM in assay [1] (setting [4]) and > 18600 nM in assay [2].

As for `Cc1ccc2c(NCc3ccc(NC(=O)C4CCN(Cc5ccccc5)CC4)cc3)nc(N(C)CCCN(C)C)nc2c1` [Example 140, 1-benzyl-N-{4-[({2-[[3-(dimethylamino)propyl](methyl)amino]-7-methylquinazolin-4-yl}amino)methyl]phenyl}-piperidine-4-carboxamide], the IC50 in assay [1] (setting [3]) was 1320 nM; in assay [1] (setting [4]) it was 1420 nM; in assay [2] it was > 8620 nM.

Take `Cc1ccc2c(NCc3ccc(NC(=O)C4CCN(Cc5ccccc5)CC4)cc3)nc(N3CCN(C)CC3)nc2c1` [Example 141, 1-benzyl-N-[4-({[7-methyl-2-(4-methylpiperazin-1-yl)quinazolin-4-yl]amino}methyl)phenyl]piperidine-4-carboxamide]: the IC50 in assay [1] (setting [3]) was 1330 nM; in assay [1] (setting [4]) it was 1580 nM; in assay [2] it was > 17700 nM.

Take `Cc1ccc2c(NCc3ccc(NC(=O)C4CCN(Cc5ccccc5)CC4)cc3)nc(N(C)Cc3ccccc3)nc2c1` [Example 142, 1-benzyl-N-{4-[({2-[benzyl(methyl)amino]-7-methylquinazolin-4-yl}amino)methyl]phenyl}-piperidine-4-carboxamide]: the IC50 in assay [1] (setting [3]) is 677 nM; in assay [1] (setting [4]), 573 nM; in assay [2], > 4280 nM.

On to `Cc1ccc2c(NCc3ccc(NC(=O)C4CCN(Cc5ccccc5)CC4)cc3)nc(N3CCN[C@H](C)C3)nc2c1` [Example 143, 1-benzyl-N-{4-[({7-methyl-2-[(3R)-3-methylpiperazin-1-yl]quinazolin-4-yl}amino)methyl]phenyl}piperidine-4-carboxamide], for which the IC50 in assay [1] (setting [3]) is 1470 nM; in assay [1] (setting [4]), 1930 nM; in assay [2], > 8870 nM.

Consider `Cc1ccc2c(NCc3ccc(NC(=O)C4CCN(Cc5ccccc5)CC4)cc3)nc(N(C)CCN(C)C)nc2c1` [Example 144, 1-benzyl-N-{4-[({2-[[2-(dimethylamino)ethyl](methyl)amino]-7-methylquinazolin-4-yl}amino)methyl]phenyl}piperidine-4-carboxamide], for which the IC50 in assay [1] (setting [3]) was 1440 nM; in assay [1] (setting [4]), 2270 nM; in assay [2], > 8840 nM.

As to `Cc1ccc2c(NCc3ccc(NC(=O)C4CCN(Cc5ccccc5)CC4)cc3)nc(N(C)CCc3ccccn3)nc2c1` [Example 145, 1-benzyl-N-{4-[({7-methyl-2-[methyl(2-pyridin-2-ylethyl)amino]quinazolin-4-yl}amino)methyl]phenyl}piperidine-4-carboxamide], the IC50 is 1230 nM in assay [1] (setting [3]), 1350 nM in assay [1] (setting [4]) and > 16700 nM in assay [2].

Take `CN(C)c1nc(NCc2ccc(NC(=O)C3CCN(Cc4ccccc4)CC3)cc2)c2ccccc2n1` [Example 146, 1-benzyl-N-[4-({[2-(dimethylamino)quinazolin-4-yl]amino}methyl)phenyl]piperidine-4-carboxamide]: the IC50 is 1770 nM in assay [1] (setting [3]), 2000 nM in assay [1] (setting [4]) and > 10100 nM in assay [2].

Consider `CNc1nc(NCc2ccc(NC(=O)C3CCN(Cc4ccccc4)CC3)cc2)c2ccccc2n1` [Example 147, 1-benzyl-N-[4-({[2-(methylamino)quinazolin-4-yl]amino}methyl)phenyl]piperidine-4-carboxamide], for which the IC50 in assay [1] (setting [3]) was 1250 nM; in assay [1] (setting [4]), 1570 nM; in assay [2], > 5200 nM.

For the compound `Cc1ccc2nc(N(C)C)nc(NCc3ccc(NC(=O)C4CCN(Cc5ccccc5)CC4)cc3)c2c1` [Example 148, 1-benzyl-N-[4-({[2-(dimethylamino)-6-methylquinazolin-4-yl]amino}methyl)phenyl]piperidine-4-carboxamide], the IC50 in assay [1] (setting [3]) is 1030 nM; in assay [1] (setting [4]) it was 1070 nM; in assay [2] it was > 9170 nM.

On to `CNc1nc(NCc2ccc(NC(=O)C3CCN(Cc4ccccc4)CC3)cc2)c2cc(C)ccc2n1` [Example 149, 1-benzyl-N-[4-({[6-methyl-2-(methylamino)quinazolin-4-yl]amino}methyl)phenyl]piperidine-4-carboxamide], for which the results for the IC50 in assay [1] (setting [3]), in assay [1] (setting [4]) and in assay [2] were 726 nM, 606 nM and > 2530 nM, respectively.

Take `CN(C)c1nc(NCc2ccc(NC(=O)C3CCN(Cc4ccccc4)CC3)cc2)c2ccc(/C=C/C(C)(C)C)cc2n1` [Example 152, 1-benzyl-N-{4-[({2-(dimethylamino)-7-[(1E)-3,3-dimethylbut-1-en-1-yl]quinazolin-4-yl}amino)methyl]phenyl}piperidine-4-carboxamide]: the IC50 in assay [1] (setting [3]) was > 962 nM; in assay [1] (setting [4]), 1050 nM; in assay [2] it was > 3850 nM.

For `C/C=C\c1ccc2c(NCc3ccc(NC(=O)C4CCN(Cc5ccccc5)CC4)cc3)nc(N(C)C)nc2c1` [Example 153, 1-benzyl-N-{4-[({2-(dimethylamino)-7-[(1Z)-prop-1-en-1-yl]quinazolin-4-yl}amino)methyl]phenyl}piperidine-4-carboxamide], the values for the IC50 in assay [1] (setting [3]), in assay [1] (setting [4]) and in assay [2] were 305 nM, 462 nM and > 4110 nM, respectively.

As for `CN(C)c1nc(NCc2ccc(NC(=O)C3CCN(Cc4ccc(F)cc4)CC3)cc2)c2cc(C(F)(F)F)ccc2n1` [Example 154, N-[4-({[2-(dimethylamino)-6-(trifluoromethyl)quinazolin-4-yl]amino}methyl)phenyl]-1-(4-fluorobenzyl)piperidine-4-carboxamide], the half-maximal inhibitory concentration (IC50) in assay [1] (setting [3]) was 4190 nM; in assay [1] (setting [4]), 3590 nM; in assay [2] it was > 8610 nM.

Take `O=C(Nc1ccc(CNc2nc(N3CCC3)nc3ccc(C(F)(F)F)cc23)cc1)C1CCN(Cc2ccc(F)cc2)CC1` [Example 155, N-[4-({[2-azetidin-1-yl-6-(trifluoromethyl)quinazolin-4-yl]amino}methyl)phenyl]-1-(4-fluorobenzyl)piperidine-4-carboxamide]: the IC50 in assay [1] (setting [3]) is 3490 nM; in assay [1] (setting [4]) it was > 2110 nM; in assay [2] it was > 8440 nM.

As to `O=C(Nc1ccc(CNc2nc(N3CCCC3)nc3ccc(C(F)(F)F)cc23)cc1)C1CCN(Cc2ccc(F)cc2)CC1` [Example 156, 1-(4-fluorobenzyl)-N-[4-({[2-pyrrolidin-1-yl-6-(trifluoromethyl)quinazolin-4-yl]amino}methyl)phenyl]piperidine-4-carboxamide], the IC50 was 3690 nM in assay [1] (setting [3]), > 4120 nM in assay [1] (setting [4]) and > 8240 nM in assay [2].

For the compound `O=C(Nc1ccc(CNc2nc(N3CCN(c4ncccn4)CC3)nc3ccc(C(F)(F)F)cc23)cc1)C1CCN(Cc2ccc(F)cc2)CC1` [Example 157, 1-(4-fluorobenzyl)-N-[4-({[2-(4-pyrimidin-2-ylpiperazin-1-yl)-6-(trifluoromethyl)quinazolin-4-yl]amino}methyl)phenyl]piperidine-4-carboxamide], the IC50 in assay [1] (setting [3]) is > 3570 nM; in assay [1] (setting [4]), > 7140 nM; in assay [2], > 7140 nM.
